Test results: ChEMBL document CHEMBL1201862, “PubChem BioAssay data set” (2004)
Activity calls are given as the source filed them.

Columns and labels:
[1] = HEK-293T cell viability reduction – luminescence, B-cell screen hits, cytotoxicity control for BCR NF-kB inhibitor project, dose response (AID 489021); type: functional, cell-based;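 also: HEK-293T cells carrying an NF-kB luciferase reporter; cells exposed to compound for about 14 hours before viability readout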
[2] = test system: BJ; test: BJ-TERT fibroblast viability loss – cell-based, RAS-independent, luminescence, dose response (AID 1933); type: functional; conditions: Homo sapiens
[3] = test system: BJ; test: cells; type: functional, cell-based; conditions: Homo sapiens
[4] = Trypanosoma cruzi growth suppression in host cells – NIH3T3 host cells, beta-gal luminescence, confirmation (AID 2044); type: functional, cell-based;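 also: intracellular parasites grown in NIH/3T3 mouse fibroblasts as host cells; luminescent beta-galactosidase reporter signal from transgenic T. cruzi replicating inside host cells; inhibitors lower the luminescence signal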
[5] = NIH3T3 cell viability loss – ATP luminescence, mouse fibroblasts, counter-screen, dose response (AID 2010); type: functional, cell-based;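 also: cells exposed to compound for about 90 hours before reading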
[6] = test system: BJ; test: BJ-TERT-LT-ST fibroblast viability loss – cell-based, RAS-independent, luminescence, dose response (AID 1935); type: functional; conditions: Homo sapiens;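 also: BJ fibroblasts immortalized with TERT plus LT and ST oncogenes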
[7] = DRD fibroblast viability loss – cell-based, non-viral oncogenic, luminescence, dose response (AID 1934); type: functional; conditions: Homo sapiens
[8] = test system: INS1; test: INS-1E survival protection against cytokine death – cell-based, luminescence, retest, dose response (AID 449756); type: functional; conditions: Rattus norvegicus;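 also: cell death triggered by IL-1 beta plus TNF-alpha plus IFN-gamma mixture; protective hits raise ATP signal compared with cytokine alone wells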
[9] = molecular target: Genome polyprotein (dengue virus type 2, UniProt P29990); test: flavivirus cap methylation enzyme inhibition – biochemical, confirmation dose response, primary screen (AID 588689); type: functional
Genome polyprotein, sequence (P29990 2492-3391 limits assumed): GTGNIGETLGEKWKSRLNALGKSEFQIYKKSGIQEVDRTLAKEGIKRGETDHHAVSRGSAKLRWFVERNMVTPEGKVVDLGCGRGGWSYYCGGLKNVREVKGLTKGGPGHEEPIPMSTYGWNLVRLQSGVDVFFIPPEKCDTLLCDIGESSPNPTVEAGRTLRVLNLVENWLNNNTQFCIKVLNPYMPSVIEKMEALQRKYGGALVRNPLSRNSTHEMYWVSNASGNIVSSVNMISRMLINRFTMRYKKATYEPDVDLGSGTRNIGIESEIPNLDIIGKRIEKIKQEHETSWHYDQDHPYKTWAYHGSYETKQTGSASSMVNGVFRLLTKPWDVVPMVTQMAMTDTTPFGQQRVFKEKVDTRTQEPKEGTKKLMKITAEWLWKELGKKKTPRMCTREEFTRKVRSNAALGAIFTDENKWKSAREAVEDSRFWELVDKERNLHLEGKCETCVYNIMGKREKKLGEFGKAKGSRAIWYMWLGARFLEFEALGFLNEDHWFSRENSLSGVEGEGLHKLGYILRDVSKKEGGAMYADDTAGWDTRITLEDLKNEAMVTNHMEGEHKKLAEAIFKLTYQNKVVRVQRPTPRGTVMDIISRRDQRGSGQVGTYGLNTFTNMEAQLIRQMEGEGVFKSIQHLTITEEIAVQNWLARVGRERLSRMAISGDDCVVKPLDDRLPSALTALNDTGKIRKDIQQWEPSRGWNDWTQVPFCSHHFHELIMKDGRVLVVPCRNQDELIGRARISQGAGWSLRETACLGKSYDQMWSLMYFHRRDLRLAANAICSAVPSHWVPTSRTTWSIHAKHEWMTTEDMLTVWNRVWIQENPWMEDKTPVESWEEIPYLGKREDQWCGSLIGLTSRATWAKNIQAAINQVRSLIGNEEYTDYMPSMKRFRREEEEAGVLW

[10] = molecular target: T1, Corticotropin-releasing factor receptor 2/Corticotropin-releasing factor-binding protein (Homo sapiens, UniProt P24387+Q13324); test: Dose Response confirmation of uHTS hits for small molecule antagonists of the CRF-binding protein and CRF-R2 receptor complex.; type: functional; conditions: read-out: IC50_Mean
T1 sequence (Q13324 whole entry): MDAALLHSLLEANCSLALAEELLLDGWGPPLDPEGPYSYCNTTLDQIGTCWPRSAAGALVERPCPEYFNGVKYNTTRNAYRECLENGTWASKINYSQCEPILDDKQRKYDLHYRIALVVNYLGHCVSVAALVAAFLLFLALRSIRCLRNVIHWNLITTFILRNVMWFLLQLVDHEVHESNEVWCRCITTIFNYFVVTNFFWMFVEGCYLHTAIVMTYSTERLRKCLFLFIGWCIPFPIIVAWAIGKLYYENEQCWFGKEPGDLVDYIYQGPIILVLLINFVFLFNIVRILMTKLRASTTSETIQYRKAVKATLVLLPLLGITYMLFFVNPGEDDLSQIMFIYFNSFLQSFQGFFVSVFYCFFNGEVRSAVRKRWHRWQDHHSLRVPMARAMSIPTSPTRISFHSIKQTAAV
T1 sequence (P24387 whole entry): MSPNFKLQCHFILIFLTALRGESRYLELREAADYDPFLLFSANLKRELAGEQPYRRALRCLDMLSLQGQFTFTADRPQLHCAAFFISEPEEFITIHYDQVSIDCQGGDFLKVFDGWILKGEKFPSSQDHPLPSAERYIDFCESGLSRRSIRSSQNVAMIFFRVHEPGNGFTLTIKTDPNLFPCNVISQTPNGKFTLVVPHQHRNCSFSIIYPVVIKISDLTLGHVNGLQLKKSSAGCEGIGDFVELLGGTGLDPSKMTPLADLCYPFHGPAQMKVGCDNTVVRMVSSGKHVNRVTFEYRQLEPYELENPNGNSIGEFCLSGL

[11] = molecular target: T1, Corticotropin-releasing factor receptor 2/Corticotropin-releasing factor-binding protein; test: activators of CRF receptor 2 with binding protein – uHTS hits, confirmation (AID 602473); type: functional; conditions: read-out: EC50_Mean
[12] = molecular target: T2, Histone-lysine N-methyltransferase NSD2 (Homo sapiens, UniProt O96028); type: biochemical
T2 sequence (O96028 whole entry): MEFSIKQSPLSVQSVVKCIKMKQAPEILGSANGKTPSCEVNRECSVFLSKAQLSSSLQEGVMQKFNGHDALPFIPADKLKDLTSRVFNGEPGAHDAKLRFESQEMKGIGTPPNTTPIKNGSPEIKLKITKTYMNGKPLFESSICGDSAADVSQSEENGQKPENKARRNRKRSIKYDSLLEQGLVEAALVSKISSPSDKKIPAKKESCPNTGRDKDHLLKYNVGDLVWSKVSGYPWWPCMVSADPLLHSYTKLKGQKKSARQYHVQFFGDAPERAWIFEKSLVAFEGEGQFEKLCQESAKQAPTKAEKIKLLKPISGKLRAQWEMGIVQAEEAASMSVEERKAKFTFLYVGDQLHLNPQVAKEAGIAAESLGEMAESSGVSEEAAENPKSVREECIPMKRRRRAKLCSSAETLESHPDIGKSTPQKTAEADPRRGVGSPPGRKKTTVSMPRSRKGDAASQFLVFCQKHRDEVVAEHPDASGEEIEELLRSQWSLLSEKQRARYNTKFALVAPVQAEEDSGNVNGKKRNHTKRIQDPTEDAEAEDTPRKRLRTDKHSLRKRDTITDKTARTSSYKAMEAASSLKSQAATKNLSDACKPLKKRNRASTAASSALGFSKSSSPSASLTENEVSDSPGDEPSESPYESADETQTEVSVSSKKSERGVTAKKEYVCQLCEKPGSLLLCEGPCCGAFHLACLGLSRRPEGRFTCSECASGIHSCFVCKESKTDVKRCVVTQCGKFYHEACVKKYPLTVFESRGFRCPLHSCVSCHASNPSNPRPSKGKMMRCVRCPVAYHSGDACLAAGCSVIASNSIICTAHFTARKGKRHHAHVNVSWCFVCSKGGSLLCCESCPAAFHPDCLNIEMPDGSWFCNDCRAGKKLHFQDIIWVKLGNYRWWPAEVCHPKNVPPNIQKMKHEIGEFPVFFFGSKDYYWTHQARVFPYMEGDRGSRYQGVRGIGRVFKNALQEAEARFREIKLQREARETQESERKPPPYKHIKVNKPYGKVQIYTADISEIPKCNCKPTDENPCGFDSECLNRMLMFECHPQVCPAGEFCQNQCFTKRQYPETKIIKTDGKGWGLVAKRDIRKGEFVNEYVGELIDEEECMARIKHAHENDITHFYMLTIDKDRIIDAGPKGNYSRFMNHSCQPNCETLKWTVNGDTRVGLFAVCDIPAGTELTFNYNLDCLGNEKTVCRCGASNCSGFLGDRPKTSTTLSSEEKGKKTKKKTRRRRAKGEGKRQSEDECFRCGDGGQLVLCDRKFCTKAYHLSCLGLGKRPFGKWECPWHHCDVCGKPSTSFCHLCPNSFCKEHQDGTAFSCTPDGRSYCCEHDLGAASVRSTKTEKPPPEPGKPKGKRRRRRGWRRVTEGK

[13] = molecular target: T3, Short transient receptor potential channel 4 (Mus musculus, UniProt Q9QUQ5); test: block of DAMGO-driven TRPC4 calcium entry – cell-based, HEK293 TRPC4/mu-opioid, Fluo-4 calcium, dose response (AID 434942); type: functional;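 also: potency of inhibitors blocking the TRPC4 calcium response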
T3 sequence (Q9QUQ5 whole entry): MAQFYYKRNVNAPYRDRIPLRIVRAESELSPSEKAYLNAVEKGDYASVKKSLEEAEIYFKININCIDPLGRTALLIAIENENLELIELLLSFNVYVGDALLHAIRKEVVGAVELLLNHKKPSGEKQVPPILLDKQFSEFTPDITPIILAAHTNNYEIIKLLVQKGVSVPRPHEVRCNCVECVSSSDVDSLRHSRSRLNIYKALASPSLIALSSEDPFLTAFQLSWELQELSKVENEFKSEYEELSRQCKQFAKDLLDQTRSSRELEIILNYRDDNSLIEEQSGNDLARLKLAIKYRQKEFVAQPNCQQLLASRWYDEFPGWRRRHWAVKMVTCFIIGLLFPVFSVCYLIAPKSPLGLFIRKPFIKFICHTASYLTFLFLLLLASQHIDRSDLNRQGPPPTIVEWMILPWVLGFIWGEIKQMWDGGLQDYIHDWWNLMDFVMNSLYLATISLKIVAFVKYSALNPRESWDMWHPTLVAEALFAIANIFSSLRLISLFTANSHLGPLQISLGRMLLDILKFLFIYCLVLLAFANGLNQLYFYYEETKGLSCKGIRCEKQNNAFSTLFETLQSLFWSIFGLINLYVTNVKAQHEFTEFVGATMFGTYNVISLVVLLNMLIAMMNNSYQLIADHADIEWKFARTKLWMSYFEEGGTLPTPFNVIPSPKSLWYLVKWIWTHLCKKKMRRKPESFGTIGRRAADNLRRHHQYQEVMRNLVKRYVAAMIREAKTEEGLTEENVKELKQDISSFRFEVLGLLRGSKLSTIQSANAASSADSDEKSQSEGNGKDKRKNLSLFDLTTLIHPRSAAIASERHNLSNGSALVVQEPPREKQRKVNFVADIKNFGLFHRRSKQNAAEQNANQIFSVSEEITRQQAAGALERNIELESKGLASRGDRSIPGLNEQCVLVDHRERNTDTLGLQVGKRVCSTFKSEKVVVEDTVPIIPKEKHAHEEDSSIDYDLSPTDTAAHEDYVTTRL

[14] = reduction of Shn3 3'UTR-driven luciferase in osteoblasts – cell-based, Clone20 osteoblasts, firefly luciferase, cherry-picked, dose response (AID 624132); type: functional;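 also: firefly luciferase luminescence from reporter carrying the Shn3 3'UTR in osteoblasts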
[15] = loss of viability in HepG2 cells – cell-based, CellTiter-Glo, cherry-picked, cytotoxicity control for Shn3 inhibitor project, dose response (AID 624134); type: functional
[16] = non-specific 3'UTR reporter inhibition in Clone20-Shn3RL – cell-based, Renilla luciferase, cherry-picked, counter-screen for Shn3 inhibitor project, dose response (AID 624133); type: functional
[17] = molecular target: Protein Wnt-3a (Mus musculus, UniProt P27467); test: antagonism of Wnt3a pathway luciferase reporter – Wnt-LIGHT cells, luminescence, selectivity assay for Gli-SUFU antagonist project, dose response (AID 651570); type: functional; conditions: read-out: IC50_Mean;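 also: Wnt-LIGHT reporter cells stimulated with conditioned medium from Wnt3a-producing cells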
Protein Wnt-3a, sequence (P27467 whole entry): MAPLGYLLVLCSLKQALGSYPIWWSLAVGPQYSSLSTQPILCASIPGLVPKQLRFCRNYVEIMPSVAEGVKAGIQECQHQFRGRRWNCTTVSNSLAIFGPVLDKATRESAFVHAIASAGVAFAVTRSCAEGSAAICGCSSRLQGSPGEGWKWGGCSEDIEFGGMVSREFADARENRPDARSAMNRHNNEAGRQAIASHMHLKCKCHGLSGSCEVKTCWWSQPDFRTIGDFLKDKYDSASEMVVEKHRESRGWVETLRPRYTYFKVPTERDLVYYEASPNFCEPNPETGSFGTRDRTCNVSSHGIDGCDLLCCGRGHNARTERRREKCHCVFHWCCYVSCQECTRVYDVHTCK

[18] = molecular target: T4, Ubiquitin-conjugating enzyme E2 N (Homo sapiens, UniProt P61088); type: functional;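 also: Dose-response confirmation in a TR-FRET assay detecting UBC13-driven polyubiquitin chain formation, inhibition measured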
T4 sequence (P61088 whole entry): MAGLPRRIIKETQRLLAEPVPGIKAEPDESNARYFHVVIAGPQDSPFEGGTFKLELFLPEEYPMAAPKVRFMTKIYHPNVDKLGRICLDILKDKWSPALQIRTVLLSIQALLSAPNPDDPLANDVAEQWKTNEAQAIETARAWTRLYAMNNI

[19] = molecular target: Nonstructural protein 1 (Influenza A virus, UniProt Q194T2); type: functional, Influenza A virus (A/California/07/2009(H1N1))
Nonstructural protein 1, sequence (Q194T2 whole entry): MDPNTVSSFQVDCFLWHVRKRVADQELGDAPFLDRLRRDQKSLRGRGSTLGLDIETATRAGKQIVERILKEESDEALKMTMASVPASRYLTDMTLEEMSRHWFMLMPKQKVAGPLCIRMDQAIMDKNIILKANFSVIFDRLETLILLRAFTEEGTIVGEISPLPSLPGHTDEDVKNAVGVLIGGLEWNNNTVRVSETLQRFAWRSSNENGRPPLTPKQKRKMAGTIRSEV

## COc1ccc(-c2noc(N3CCC(C(=O)Nc4ccc(F)cc4F)CC3)n2)cc1
[1]
  IC50: > 80 µM (inactive)

## N=c1c2c(n(Cc3ccc(Cl)c(Cl)c3)c3c1CCC3)CCCC2
[2]
  EC50: 11.9 µM (active)
[3]
  EC50: 14.1 µM (inconclusive)
[4]
  EC50: 0.152 µM (active)
[5]
  EC50: > 60 µM (not active)
[6]
  EC50: > 150 µM (not active)
[7]
  EC50: 28.9 µM (inconclusive)
[1]
  IC50: > 80 µM (inactive)
[8]
  AC50: 2.78 µM (active)

## CCN(CC(=O)Nc1c(F)cccc1F)C(=O)C1(c2ccccc2)CC1
[1]
  IC50: > 80 µM (inactive)

## N#C/C(=C\c1cccc(Cl)c1)C(=O)c1ccccc1
[9]
  IC50: 64.1 µM (active)

## N#Cc1c(Cl)nc2c(c1C#N)CCCC2
[10]
  IC50: > 47.1 µM (inactive)
[11]
  EC50: > 53 µM (inactive)
[12]
  AC50: 11.8 µM (active)

## Cc1cc(Nc2cccc(O)c2)c2ccccc2n1
[13]
  EC50: 5.31 µM (active)

## CCN(CC)C(=O)C1CCCN(Cc2cccc(Oc3ccccc3)c2)C1 (configuration not stated)
[13]
  EC50: 2.37 µM (active)

## CN(CCOc1ccc(Cl)cc1)C(=O)c1cccc(S(=O)(=O)N2CCN(c3ccc(F)cc3)CC2)c1
[14]
  AC50: 1.77 µM (active)
[15]
  AC50: 2.46 µM (active)
[16]
  AC50: 6.21 µM (active)
[17]
  IC50: 8.36 µM (active)

## O=C(O)c1ccc(NS(=O)(=O)c2ccc3c(c2)C(=O)c2cc(S(=O)(=O)Nc4ccc(C(=O)O)cc4)ccc2-3)cc1
[9]
  IC50: 95.9 µM (active)

## Cc1ccsc1CNc1ncnc2ccc(-c3c(C)noc3C)cc12
[18]
  IC50: > 20 µM (inactive)
[17]
  IC50: 14.8 µM (active)

## Cc1nc(CNS(=O)(=O)c2ccc3ccccc3c2)cs1
[19]
  IC50: 37.7 µM (active)
[10]
  IC50: > 47.1 µM (inactive)
[11]
  EC50: > 53 µM (inactive)

## Cc1ccc(-c2cc(C(F)(F)F)n3nc(C(=O)N4CCN5CCCC5C4)cc3n2)cc1 (configuration not stated)
[12]
  AC50: 16 µM (active)
